Laboratory results published in the CheMixHub viscosity set.

Experiment: xn = mol fraction of the nth substance listed

C1CCCCC1 + CCCCCCCCCC
Settings	viscosity [mPa·s]
298.15 K, 101 kPa, x2 = 0.1357	0.8838
298.15 K, 101 kPa, x2 = 0.1638	0.8739
298.15 K, 101 kPa, x2 = 0.1909	0.8684
298.15 K, 101 kPa, x2 = 0.2292	0.8595
298.15 K, 101 kPa, x2 = 0.2677	0.8527
298.15 K, 101 kPa, x2 = 0.2769	0.8484
298.15 K, 101 kPa, x2 = 0.316	0.8438
298.15 K, 101 kPa, x2 = 0.3563	0.8348
298.15 K, 101.33 kPa, x1 = 0.1037	0.836
298.15 K, 101.33 kPa, x1 = 0.1316	0.8418
298.15 K, 101.33 kPa, x1 = 0.2065	0.824
298.15 K, 101.33 kPa, x1 = 0.254	0.8386
298.15 K, 101.33 kPa, x1 = 0.3077	0.818
298.15 K, 101.33 kPa, x1 = 0.3302	0.8292
298.15 K, 101.33 kPa, x1 = 0.4003	0.818
298.15 K, 101.33 kPa, x1 = 0.467	0.8331
298.15 K, 101.33 kPa, x1 = 0.5005	0.818
298.15 K, 101.33 kPa, x1 = 0.5494	0.8222
298.15 K, 101.33 kPa, x1 = 0.6	0.814
298.15 K, 101.33 kPa, x1 = 0.6289	0.8303
298.15 K, 101.33 kPa, x1 = 0.7015	0.8247
298.15 K, 101.33 kPa, x1 = 0.7045	0.812
298.15 K, 101.33 kPa, x1 = 0.7719	0.8409
298.15 K, 101.33 kPa, x1 = 0.802	0.819
298.15 K, 101.33 kPa, x1 = 0.8324	0.8412
298.15 K, 101.33 kPa, x1 = 0.8857	0.8612
298.15 K, 101.33 kPa, x1 = 0.9001	0.845
298.15 K, 101.33 kPa, x1 = 0.9309	0.8746
298.15 K, 101.33 kPa, x2 = 0.0178	0.8968
303.15 K, 101.33 kPa, x1 = 0.1037	0.78
303.15 K, 101.33 kPa, x1 = 0.2065	0.766
303.15 K, 101.33 kPa, x1 = 0.3077	0.761
303.15 K, 101.33 kPa, x1 = 0.4003	0.761
303.15 K, 101.33 kPa, x1 = 0.5005	0.76
303.15 K, 101.33 kPa, x1 = 0.6	0.756
303.15 K, 101.33 kPa, x1 = 0.7045	0.754
303.15 K, 101.33 kPa, x1 = 0.802	0.759
303.15 K, 101.33 kPa, x1 = 0.9001	0.78
308.15 K, 101 kPa, x1 = 0.0439	0.7345
308.15 K, 101 kPa, x1 = 0.175	0.7272
308.15 K, 101 kPa, x1 = 0.2106	0.7254
308.15 K, 101 kPa, x1 = 0.3096	0.7164
308.15 K, 101 kPa, x1 = 0.3863	0.7147
308.15 K, 101 kPa, x1 = 0.4943	0.7122
308.15 K, 101 kPa, x1 = 0.5864	0.7133
308.15 K, 101 kPa, x1 = 0.7303	0.7189
308.15 K, 101 kPa, x1 = 0.8805	0.7325
308.15 K, 101 kPa, x1 = 0.9385	0.7399
308.15 K, 101.33 kPa, x1 = 0.1037	0.728
308.15 K, 101.33 kPa, x1 = 0.2065	0.713
308.15 K, 101.33 kPa, x1 = 0.3077	0.708
308.15 K, 101.33 kPa, x1 = 0.4003	0.71
308.15 K, 101.33 kPa, x1 = 0.5005	0.71
308.15 K, 101.33 kPa, x1 = 0.6	0.702
308.15 K, 101.33 kPa, x1 = 0.7045	0.699
308.15 K, 101.33 kPa, x1 = 0.802	0.703
308.15 K, 101.33 kPa, x1 = 0.9001	0.716
313.15 K, 101 kPa, x1 = 0.0439	0.6849
313.15 K, 101 kPa, x1 = 0.175	0.6717
313.15 K, 101 kPa, x1 = 0.2106	0.6706
313.15 K, 101 kPa, x1 = 0.3096	0.666
313.15 K, 101 kPa, x1 = 0.3863	0.6618
313.15 K, 101 kPa, x1 = 0.4943	0.6596
313.15 K, 101 kPa, x1 = 0.5864	0.6577
313.15 K, 101 kPa, x1 = 0.7303	0.6684
313.15 K, 101 kPa, x1 = 0.8805	0.6936
313.15 K, 101 kPa, x1 = 0.9385	0.7077

COC(C)=O + CCCCCCCCCC
298.15 K, 101.3 kPa
Settings	viscosity [mPa·s]
x1 = 0.0803	0.7987
x1 = 0.1876	0.7291
x1 = 0.3354	0.6485
x1 = 0.4452	0.5969
x1 = 0.476	0.5809
x1 = 0.5538	0.5456
x1 = 0.618	0.5186
x1 = 0.7363	0.4714
x1 = 0.8315	0.4356

CC(CC(C)(C)C)CP(=O)([O-])CC(C)CC(C)(C)C.CCCC[P+](C)(CCCC)CCCC (centres undefined) + CCCCCCCCCCCC
viscosity [mPa·s], 101 kPa
Settings	298.15 K	303.15 K	308.15 K	313.15 K	318.15 K	323.15 K
x2 = 0.25	318	214	159	112	81.6	60.6
x2 = 0.43	88.6	67.8	53.6	41.9	34.4	27.1
x2 = 0.56	39.4	31	25.4	21.7	18.3	16.1

COC(C)=O + CCCCCCCCCCCC
298.15 K, 101.3 kPa
Settings	viscosity [mPa·s]
x1 = 0.09	1.243
x1 = 0.213	1.08
x1 = 0.3361	0.9577
x1 = 0.4514	0.8306
x1 = 0.5533	0.7377
x1 = 0.6236	0.6777
x1 = 0.6972	0.6144
x1 = 0.7671	0.557
x1 = 0.8924	0.4527
x1 = 0.9377	0.4171

CCCCCCCC(=O)OCC + CCCCCCCCCCCCCCCC
Settings	viscosity [mPa·s]
295.04 K, 103 kPa, x2 = 0.5	2.176
298.65 K, 103 kPa, x2 = 0.25	1.72
312.63 K, 101 kPa, x2 = 0.5	1.583

COC(C)=O + CCCCCCCCCCCCCCCC
298.15 K, 101.3 kPa
Settings	viscosity [mPa·s]
x1 = 0.0393	2.924
x1 = 0.118	2.619
x1 = 0.3657	1.819
x1 = 0.4814	1.491
x1 = 0.5357	1.35
x1 = 0.652	1.086
x1 = 0.7625	0.8431
x1 = 0.8682	0.6349
x1 = 0.9609	0.4379

COCCOC + CCCCCCCCCO
101 kPa
Settings	viscosity [mPa·s]
293.15 K, x1 = 0.05508	9.45
293.15 K, x1 = 0.1012	7.813
293.15 K, x1 = 0.2007	5.336
293.15 K, x1 = 0.2922	3.86
293.15 K, x1 = 0.393	2.747
293.15 K, x1 = 0.494	1.994
293.15 K, x1 = 0.5924	1.477
293.15 K, x1 = 0.7015	1.076
293.15 K, x1 = 0.7986	0.812
293.15 K, x1 = 0.907	0.588
293.15 K, x1 = 0.9472	0.524
303.15 K, x1 = 0.04903	6.486
303.15 K, x1 = 0.1035	5.323
303.15 K, x1 = 0.2044	3.716
303.15 K, x1 = 0.2954	2.745
303.15 K, x1 = 0.3981	1.979
303.15 K, x1 = 0.4938	1.485
303.15 K, x1 = 0.5991	1.098
303.15 K, x1 = 0.7049	0.816
303.15 K, x1 = 0.7958	0.643
303.15 K, x1 = 0.902	0.492
303.15 K, x1 = 0.9436	0.446
313.15 K, x1 = 0.05382	4.747
313.15 K, x1 = 0.1054	4
313.15 K, x1 = 0.2052	2.936
313.15 K, x1 = 0.2949	2.233
313.15 K, x1 = 0.3955	1.66
313.15 K, x1 = 0.4901	1.279
313.15 K, x1 = 0.5829	1.007
313.15 K, x1 = 0.7	0.739
313.15 K, x1 = 0.8016	0.58
313.15 K, x1 = 0.9013	0.457
313.15 K, x1 = 0.9469	0.41

COC(C)=O + CCCCCCCCO
viscosity [mPa·s], 101 kPa
Settings	x2 = 0.053	x2 = 0.1119	x2 = 0.1776	x2 = 0.2515	x2 = 0.3351	x2 = 0.4305	x2 = 0.5404	x2 = 0.6684	x2 = 0.8194
298.15 K	0.436	0.505	0.601	0.736	0.932	1.232	1.722	2.573	4.177
303.15 K	0.414	0.478	0.564	0.685	0.86	1.126	1.554	2.288	3.646
308.15 K	0.395	0.454	0.532	0.64	0.795	1.029	1.402	2.03	3.174
313.15 K	0.374	0.429	0.5	0.596	0.734	0.941	1.267	1.808	2.773

COCCOC + CCCCCCCCO
298.15 K, 101 kPa
Settings	viscosity [mPa·s]
x1 = 0.1384	4.222
x1 = 0.2654	2.824
x1 = 0.3825	1.922
x1 = 0.4907	1.402
x1 = 0.591	1.089
x1 = 0.6843	0.8523
x1 = 0.7713	0.6745
x1 = 0.8525	0.5661
x1 = 0.9286	0.4789
